Assay results taken from US5455286A, “Bioactive composition” (priority 1994, dated 1995).

Legend:
[1] = dog, in vivo, 480 min
Experimental: (§1) The experiments were carried out on male beagle dogs, each roughly 10 kg in weight. […] The dogs were restrained in a dog sling. Approximately 10 mg of propranolol was administered nasally to each dog by spraying an appropriate amount of the present formulations containing propranolol into both nostrils of the dog using a metered dose dispenser (typically 2 sprays over a two minute period). The amount of drug administered nasally was obtained by weighing the dispenser before and after spraying.
(§2) Blood samples were withdrawn at desired intervals from each dog through a cannula inserted in the cephalic vein. The blood samples were centrifuged immediately after the collection and the plasma samples were stored frozen until assayed. The assay for propranolol consisted of HPLC separation and UV/fluorescence detection.
(§3) The area under the curve (AUC) has been normalized to the amount of propranolol administered.

[2] = in vivo; conditions: dog
Experimental: as §1, §2, §3

AUC/IV-AUC [1]: 1.00 | Tmax ([2]; iv): 0.05 h | Cmax ([2]; po): 3 ng/mL | Tmax ([2]; po): 2 h | bioavailability at 8 h ([2]; po): 4%
SMILES: CC(C)NCC(O)COc1cccc2ccccc12 (centres unmarked) [Propranolol, propranolol]
